{"source": "patent US6585988B2", "about": "“Reaction product of arginine and p-aminobenzoic acid, cosmetic, and human and animal health compositions thereof” (Epicare Ltd., priority 1998, dated 2003)", "tested_on": "clinical mastitis", "experiment": "Field trials: intramammary infusion in mastitis", "type": "in vivo, cow", "settings": "treated one time on the previous day", "description": "CDRMREC was infused up the teat duct of all 4 quarters of a cow that had clinical mastitis in the left hindquarter. […] Additionally, because of a differential in the vacuum when milking the cow, infected discharge from the left hindquarter contaminated the left fore quarter which then began to show symptoms of clinical mastitis (flaking in the milk). The left fore quarter had not been infused with erythromycin. […] All signs of swelling were gone. The milk from all quarters was normal and untainted.\nTreatment consisted of six 10 ml intramamery ductal infusions of CDRMREC in the afflicted quarter following each milking.\nA Jersey cow was suffering from mastitis in the right forequarter and had received an antibiotic infusion in that quarter. […] The next day, after the PM milking, she received only one 10 ml infusion of CDRMREC in each of her quarters.\nHer milk appeared normal. Three days later, the swelling was still present and like a flattened golf ball but the milk tested normal."}
{"smiles": "CC[C@H]1OC(=O)[C@H](C)[C@@H](O[C@H]2C[C@@](C)(OC)[C@@H](O)[C@H](C)O2)[C@H](C)[C@@H](O[C@@H]2O[C@H](C)C[C@H](N(C)C)[C@H]2O)[C@](C)(O)C[C@@H](C)C(=O)[C@H](C)[C@@H](O)[C@]1(C)O", "note": "[erythromycin]", "values": [{"measurement": "swelling of afflicted quarter", "result": "the swelling still remained"}]}
